Reference: the NIST ThermoML archive (doi:10.1021/je100927m)
Numbers after ± are expanded uncertainties.

Key:
[1] = refractive index (Na D-line) (dimensionless); conditions: 298.15 K; 101.33 kPa; Liquid; Standard Abbe refractometry
[2] = Liquid; for mass density: 101.33 kPa; for speed of sound: Pulse-echo method

CCCCC(CC)CO (stereo unspecified) [2-ethyl-1-hexanol]
Conditions | refractive index
[1] | 1.4292 ± 0.0009

[2]
Conditions | mass density [kg/m3]
283.15 K | 839.89 ± 0.23
288.15 K | 836.26 ± 0.23
293.15 K | 832.62 ± 0.23
298.14 K | 828.96 ± 0.24
303.15 K | 825.28 ± 0.24
308.15 K | 821.58 ± 0.24
313.14 K | 817.86 ± 0.24
318.15 K | 814.11 ± 0.25
323.15 K | 810.33 ± 0.25
328.15 K | 806.52 ± 0.25
333.15 K | 802.68 ± 0.25
338.14 K | 798.8 ± 0.26
343.15 K | 794.87 ± 0.26
348.15 K | 790.91 ± 0.26
353.15 K | 786.89 ± 0.27
358.15 K | 782.83 ± 0.27
363.15 K | 778.72 ± 0.27

speed of sound [m/s], [2]
Conditions | 101 kPa | 15200 kPa | 30390 kPa | 45590 kPa | 60790 kPa | 75990 kPa | 91180 kPa | 101320 kPa
292.89 K | – | 1418.5 ± 1.1 | 1487.2 ± 1.1 | 1549.6 ± 1.2 | 1607.2 ± 1.3 | 1660.4 ± 1.4 | 1710.5 ± 1.5 | 1742 ± 1.5
293.15 K | 1336.3 ± 1 | – | – | – | – | – | – | –
298.15 K | 1318.4 ± 1 | – | – | – | – | – | – | –
298.19 K | – | 1400.2 ± 1.1 | 1470.1 ± 1.1 | 1533.2 ± 1.2 | 1591.5 ± 1.3 | 1645.4 ± 1.4 | 1696 ± 1.5 | 1728 ± 1.5
303.15 K | 1300.6 ± 1 | 1383.5 ± 1.1 | 1454.4 ± 1.1 | 1518.4 ± 1.2 | 1577.5 ± 1.3 | 1631.8 ± 1.4 | 1682.7 ± 1.5 | 1715.1 ± 1.5
308.13 K | – | 1367.2 ± 1.1 | 1438.9 ± 1.1 | 1503.8 ± 1.2 | 1563.5 ± 1.3 | 1618.6 ± 1.4 | 1669.8 ± 1.5 | 1702.5 ± 1.5
308.15 K | 1282.8 ± 1 | – | – | – | – | – | – | –
313.1 K | – | 1351.2 ± 1 | 1424 ± 1.1 | 1489.6 ± 1.2 | 1549.7 ± 1.3 | 1605.5 ± 1.4 | 1657.2 ± 1.5 | 1689.9 ± 1.5
313.15 K | 1264.9 ± 0.99 | – | – | – | – | – | – | –
318.15 K | 1247.1 ± 0.98 | – | – | – | – | – | – | –
318.26 K | – | 1334.8 ± 1.1 | 1408.8 ± 1.1 | 1475.2 ± 1.2 | 1535.9 ± 1.3 | 1592.2 ± 1.4 | 1644.5 ± 1.5 | 1677.4 ± 1.5
